According to patent US10227346B2, “Methyl- and trifluoromethyl-substituted pyrrolopyridine modulators of RORC2 and methods of use therof” (Pfizer Inc., priority 2014, dated 2019):

What follows are compounds tested on IL-17 production from human Th17 cells (assay: IL-17 production from human Th17 cells). Details: IL-17A in supernatant by ELISA after 6 days, human CD4+ T cells under Th17 differentiation.
Format: cell-based
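Also: purified human CD4+ T cells activated with anti-CD3 plus anti-CD28 and a Th17-inducing cytokine cocktail, with compound at serial concentrations versus no compound.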

SMILES | IC50
COc1cc(C#N)cc(C(=O)Nc2cnc3c(c([C@@H]4CCN(C(=O)C5CCCC5)[C@@H](C)C4)cn3C)c2C)c1 [Example 90, 3-cyano-N-(3-((2S,4R)-1-(cyclopentanecarbonyl)-2-methylpiperidin-4-yl)-1,4-dimethyl-1H-pyrrolo[2,3-b]pyridin-5-yl)-5-methoxybenzamide] | 12.2 nM
COc1ccc(C(=O)Nc2cnc3c(c(C4[C@@H]5CC[C@H]4CN(C(=O)C4CCCC4)C5)cn3C)c2C)cc1C#N (stereo partly drawn) [Example 99, 3-cyano-N-(3-((1R,5S,8r)-3-(cyclopentanecarbonyl)-3-azabicyclo[3.2.1]octan-8-yl)-1,4-dimethyl-1H-pyrrolo[2,3-b]pyridin-5-yl)-4-methoxybenzamide] | 14.7 nM
Cc1c(NC(=O)c2cccc(C#N)c2)cnc2c1c(C1CCN(C(=O)CC(C)C)CC1)cn2C [Example 109, 3-cyano-N-(1,4-dimethyl-3-(1-(3-methylbutanoyl)piperidin-4-yl)-1H-pyrrolo[2,3-b]pyridin-5-yl)benzamide] | 32.1 nM
COc1ccc(C(=O)Nc2cnc3c(c(C4CCN(C(=O)C(C)C)CC4)cn3C)c2C)cc1C#N [Example 110, 3-cyano-N-(3-(1-isobutyrylpiperidin-4-yl)-1,4-dimethyl-1H-pyrrolo[2,3-b]pyridin-5-yl)-4-methoxybenzamide] | 24.7 nM
Cc1c(NC(=O)c2cccc(C#N)c2)cnc2c1c([C@@H]1CCN(C(=O)C(C)C)[C@@H](C)C1)cn2C [Example 113, 3-cyano-N-(3-((2S,4R)-1-isobutyryl-2-methylpiperidin-4-yl)-1,4-dimethyl-1H-pyrrolo[2,3-b]pyridin-5-yl)benzamide] | 29.8 nM
